One data set relates to diabetic rats. Description: injection of GRP into diabetic rats, clearance of blood glucose. The class given is in vivo.
A further data set has as its target T1, DPP IV (Rattus norvegicus, UniProt P14740).
T1 construct: cleavage by the enzyme DPP IV in plasma; from tissue; host or cells: plasma
Description: inactivation by DPP IV cleavage / half-life in plasma. The class given is in vitro ADME.

The test system of another data set is pancreatic islet cells. Conditions: pancreatic islet cells in vitro; cited from earlier work.

T1 sequence (P14740 37-767 limits assumed): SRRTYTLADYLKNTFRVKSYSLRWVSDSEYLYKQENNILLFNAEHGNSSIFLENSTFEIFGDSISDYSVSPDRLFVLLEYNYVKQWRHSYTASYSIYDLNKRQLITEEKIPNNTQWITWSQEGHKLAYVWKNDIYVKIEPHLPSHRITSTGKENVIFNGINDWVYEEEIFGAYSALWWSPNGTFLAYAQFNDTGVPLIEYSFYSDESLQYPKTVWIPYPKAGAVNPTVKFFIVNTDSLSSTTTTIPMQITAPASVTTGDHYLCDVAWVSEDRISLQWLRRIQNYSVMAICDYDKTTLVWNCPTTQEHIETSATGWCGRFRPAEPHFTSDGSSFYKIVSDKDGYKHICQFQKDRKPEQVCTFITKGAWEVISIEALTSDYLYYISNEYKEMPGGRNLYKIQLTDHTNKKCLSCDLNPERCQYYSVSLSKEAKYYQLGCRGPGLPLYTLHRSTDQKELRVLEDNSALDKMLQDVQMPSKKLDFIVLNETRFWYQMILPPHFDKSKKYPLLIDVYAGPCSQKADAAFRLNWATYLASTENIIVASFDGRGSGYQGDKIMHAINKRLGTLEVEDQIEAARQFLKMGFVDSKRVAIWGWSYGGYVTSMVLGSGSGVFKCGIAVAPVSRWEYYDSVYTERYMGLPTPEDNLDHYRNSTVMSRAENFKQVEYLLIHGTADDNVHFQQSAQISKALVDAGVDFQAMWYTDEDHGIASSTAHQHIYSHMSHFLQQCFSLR

`CSCC[C@H](NC(=O)[C@H](CC(C)C)NC(=O)[C@H](Cc1c[nH]cn1)NC(=O)CNC(=O)[C@@H](NC(=O)[C@H](C)NC(=O)[C@H](Cc1c[nH]c2ccccc12)NC(=O)[C@H](Cc1c[nH]cn1)NC(=O)[C@H](CC(N)=O)NC(=O)CNC(=O)[C@H](CCCNC(=N)N)NC(=O)[C@@H]1CCCN1C(=O)[C@H](Cc1ccc(O)cc1)NC(=O)[C@H](CCSC)NC(=O)[C@H](CCCCN)NC(=O)[C@@H](NC(=O)[C@H](CC(C)C)NC(=O)[C@@H](NC(=O)[C@@H](NC(=O)CNC(=O)CNC(=O)CNC(=O)[C@H](C)NC(=O)[C@@H]1CCCN1C(=O)[C@H](CC(C)C)NC(=O)[C@@H]1CCCN1C(=O)[C@@H](N)C(C)C)[C@@H](C)O)C(C)C)[C@@H](C)O)C(C)C)C(N)=O` [GRP]: in the data set on diabetic rats (in vivo, diabetic rats), the “duration of glucose-lowering action” value is on record as “only for a short period of time”. The “clearance of blood glucose” value with diabetic rats (injection into diabetic rats) was “markedly accelerated clearance of blood glucose”. Further, the “inactivation as a result of cleavage by DPP IV in plasma” value on DPP IV is “rapid inactivation”. Moreover, the “potentiation of glucose-induced insulin secretion” value with pancreatic islet cells is listed as “potentiate glucose-induced insulin secretion”.

The record behind these values is patent US20020165148A1, “Analogues and derivatives of gastrin releasing peptide (GRP)” (priority 2000, published 2002).
